Results: article PMC6917776, “Discovery of a chemical probe for PRDM9” (Nature Communications, 2019)
Several values for one entry are separate records, joined by “and”; a condition that tells them apart may be missing. Identical values can stand only once.

Test system: H3K4me3 at known PRDM9 binding loci and control TSS loci
Test: ChIP-qPCR of H3K4me3 in PRDM9-transfected HEK293T cells
Format: cell-based, human
Conditions: Antibody H3K4me3; for 2^-dCq / dCq (IP-Input) / Cq: Figure 7 Replicate 2; for 2^-dCq (H3K4me3 IP relative to H3 IP): ChIP-qPCR Replicate 1; for Cq: ChIP-qPCR single well; for 2^-dCq (H3K4me3 ChIP relative to H3 ChIP): Replicate 1
Description: ChIP-qPCR assays were then conducted on known PRDM9 binding loci[26]. Ectopic expression of PRDM9^WT increased trimethylation of H3K4 (H3K4me3) at previously described PRDM9-specific intragenic and intergenic regions[26] (Fig. 7; Supplementary Fig. 12). […] The observed increases in H3K4me3 levels at intragenic and intergenic regions are therefore due directly to PRDM9 PR domain-dependent methylation activity, rather than through recruitment of other H3K4 methyltransferases or other indirect mechanisms.
ChIP qPCR analyses of H3K4me3 methylation levels of known PRDM9-bound loci and control loci. […] Concentrations used (µM) are indicated below each plot. (a–d) represent reported loci of PRDM9 methylation; (e, f) are transcriptional start sites (TSSs) which are not known loci of PRDM9 methylation. Data are normalized to total H3 and are presented as the mean ± upper and lower limits from two replicates. Representative plots of two independent experiments are shown in this figure. The coordinates and the genomic features associated with the assayed loci are indicated above each plot. Left Tailed Student's t-tests were performed by comparing DMSO (0 µM) treated cells to compound treated cells that have been transfected with the same plasmids. *p-value < 0.05 and **p-value < 0.01. Note that here we show a representative of two independent experiments (mean ± s.d of technical replicates) for our ChIP-qPCR experiments. Data obtained using this technique are inherently noisy due to stochastic differences in gene activity/histone positioning. Data are thus typically presented as representative rather than averaged. Source data are provided as a Source Data file.
HEK293T cells were transfected with 37.5 μg empty pcDNA3.1(+) vector (Invitrogen), or the same vector expressing either wild-type PRDM9 (PRDM9^WT) or a catalytically dead PRDM9 mutant (PRDM9^Mut) and 75 μL of Lipofectamine 2000 (Invitrogen) in 6 mL of Opti-MEM (GIBCO) for 48 h. […] ChIP assays were then performed as previously described. Briefly, cells were fixed in 1% formaldehyde and the fixation reaction was quenched in a final concentration of 0.1 M glycine. Cell pellets were first lysed in LB1 (50 mM HEPES-KOH pH 7.5, 140 mM NaCl, 1 mM EDTA, 10% Glycerol, 0.5% Igepal, 0.25% TritonX), washed once in LB2 Buffer (10 mM Tris-HCl pH 8, 200 mM NaCl, 1 mM EDTA, 0.5 mM EGTA) and finally sonicated in LB3 buffer (10 mM Tris-HCl pH 8, 100 mM NaCl, 1 mM EDTA, 0.5 mM EGTA, 0.1% Sodium deoxycholate, 0.5% N-laurosylsarcosine) using a bioruptor (Diagenode). Thereafter, 50 μg of chromatin was subjected to ChIP using the following antibodies purchased from Abcam: α-H3K4me3 (1:200, ab8580, lot:GR3207339-1) and α-H3 (1:250, ab1791, lot:GR300978-4). After extensive washing in RIPA wash buffer (50 mM HEPES-KOH pH 7.6, 100 mM LiCl, 1 mM EDTA, 1% Igepal, 0.7% Sodium Deoxycholate), DNA was eluted from beads. The eluted DNA was treated with RNase A and Proteinase K and purified using the QIAGEN PCR purification kit. qPCR was then carried out targeting the indicated loci (Supplementary Table 3). Upper and lower limits were defined by |2^−(dCq±s) − 2^−(∆Cq)|, where s = √((Standard deviation of Input Cq)^2 + (Standard deviation of Target Cq)^2). […]
formation. ChIP qPCR analyses of H3K4me3 methylation levels at known PRDM9-bound and control loci. Cells transfected with empty vector (negative control) or vectors overexpressing either wild-type PRDM9 (PRDM9 WT) or catalytically dead PRDM9 (PRDM9 MUT) were […]
Panels a-d represent reported loci of […]
(1 picture or pasted object on this page, not shown here)
PRDM9 methylation; e-f are TSSs which are not known sites of PRDM9 methylation. Data are normalized to total H3 and are presented as the mean ± upper and lower limits from two […]

[1] = Plasmid PRDM9WT, Drug Conc. 2.5

COc1cc(OC)cc(-c2noc(N3CCN(C)C4(CCN(c5ccnc(C)c5)CC4)C3)n2)c1 [MRK-740]
2^-dCq [1]: 68.6717
dCq (IP-Input) [1]: -6.102
2^-dCq (Plasmid PRDM9WT, Drug Conc. 5): 143.684
dCq (IP-Input) (Plasmid PRDM9WT, Drug Conc. 5): -7.167
2^-dCq (Plasmid PRDM9WT, Drug Conc. 10): 36.5414
dCq (IP-Input) (Plasmid PRDM9WT, Drug Conc. 10): -5.191
2^-dCq (H3K4me3 IP relative to H3 IP) (Figure 7 E chr12:6643945-6644023 TSS (GAPDH), Plasmid Empty Vector, Drug Conc. 2.5): 42.6349
2^-dCq (H3K4me3 IP relative to H3 IP) (Figure 7 E chr12:6643945-6644023 TSS (GAPDH), Plasmid Empty Vector, Drug Conc. 5): 95.4581
2^-dCq (H3K4me3 IP relative to H3 IP) (Figure 7 E chr12:6643945-6644023 TSS (GAPDH), Plasmid Empty Vector, Drug Conc. 10): 117.266
2^-dCq (H3K4me3 IP relative to H3 IP) (Figure 7 E chr12:6643945-6644023 TSS (GAPDH), Plasmid PRDM9WT, Drug Conc. 2.5): 25.3027
2^-dCq (H3K4me3 IP relative to H3 IP) (Figure 7 E chr12:6643945-6644023 TSS (GAPDH), Plasmid PRDM9WT, Drug Conc. 5): 32.9385
2^-dCq (H3K4me3 IP relative to H3 IP) (Figure 7 E chr12:6643945-6644023 TSS (GAPDH), Plasmid PRDM9WT, Drug Conc. 10): 45.6823
2^-dCq (H3K4me3 IP relative to H3 IP) (Figure 7 F chr19:8510167-8510261 TSS (HNRNPM), Plasmid Empty Vector, Drug Conc. 2.5): 71.0331
2^-dCq (H3K4me3 IP relative to H3 IP) (Figure 7 F chr19:8510167-8510261 TSS (HNRNPM), Plasmid Empty Vector, Drug Conc. 5): 77.1794
2^-dCq (H3K4me3 IP relative to H3 IP) (Figure 7 F chr19:8510167-8510261 TSS (HNRNPM), Plasmid Empty Vector, Drug Conc. 10): 127.571
2^-dCq (H3K4me3 IP relative to H3 IP) (Figure 7 F chr19:8510167-8510261 TSS (HNRNPM), Plasmid PRDM9WT, Drug Conc. 2.5): 23.4419
2^-dCq (H3K4me3 IP relative to H3 IP) (Figure 7 F chr19:8510167-8510261 TSS (HNRNPM), Plasmid PRDM9WT, Drug Conc. 5): 34.0456
2^-dCq (H3K4me3 IP relative to H3 IP) (Figure 7 F chr19:8510167-8510261 TSS (HNRNPM), Plasmid PRDM9WT, Drug Conc. 10): 45.2017
Cq [1]: 20.9173
Cq (Plasmid PRDM9WT, Drug Conc. 5): 20.8427 and 20.8648
Cq (Plasmid PRDM9WT, Drug Conc. 10): 21.3604 and 21.0972
2^-dCq (H3K4me3 ChIP relative to H3 ChIP) (Figure 7 A, chr2:128811847-128811944 (Intergenic), Plasmid Empty Vector, Drug Conc. 2.5): 0.4418
2^-dCq (H3K4me3 ChIP relative to H3 ChIP) (Figure 7 A, chr2:128811847-128811944 (Intergenic), Plasmid Empty Vector, Drug Conc. 5): 0.3019
2^-dCq (H3K4me3 ChIP relative to H3 ChIP) (Figure 7 A, chr2:128811847-128811944 (Intergenic), Plasmid Empty Vector, Drug Conc. 10): 0.3892
2^-dCq (H3K4me3 ChIP relative to H3 ChIP) (Figure 7 A, chr2:128811847-128811944 (Intergenic), Plasmid PRDM9WT, Drug Conc. 2.5): 1.223
2^-dCq (H3K4me3 ChIP relative to H3 ChIP) (Figure 7 A, chr2:128811847-128811944 (Intergenic), Plasmid PRDM9WT, Drug Conc. 5): 0.9838
2^-dCq (H3K4me3 ChIP relative to H3 ChIP) (Figure 7 A, chr2:128811847-128811944 (Intergenic), Plasmid PRDM9WT, Drug Conc. 10): 1.179
2^-dCq (H3K4me3 ChIP relative to H3 ChIP) (Figure 7 B, chr8:49932778-49932856 (Intergenic), Plasmid Empty Vector, Drug Conc. 2.5): 0.3289
2^-dCq (H3K4me3 ChIP relative to H3 ChIP) (Figure 7 B, chr8:49932778-49932856 (Intergenic), Plasmid Empty Vector, Drug Conc. 5): 0.2554
2^-dCq (H3K4me3 ChIP relative to H3 ChIP) (Figure 7 B, chr8:49932778-49932856 (Intergenic), Plasmid Empty Vector, Drug Conc. 10): 0.5965
2^-dCq (H3K4me3 ChIP relative to H3 ChIP) (Figure 7 B, chr8:49932778-49932856 (Intergenic), Plasmid PRDM9WT, Drug Conc. 2.5): 4.659
2^-dCq (H3K4me3 ChIP relative to H3 ChIP) (Figure 7 B, chr8:49932778-49932856 (Intergenic), Plasmid PRDM9WT, Drug Conc. 5): 2.677
2^-dCq (H3K4me3 ChIP relative to H3 ChIP) (Figure 7 B, chr8:49932778-49932856 (Intergenic), Plasmid PRDM9WT, Drug Conc. 10): 2.675
